Patent publication US20100310674A1, “NOVEL COMPOSITION FOR TREATING THE SIDE EFFECTS OF ANTICANCER TREATMENTS” (TROPHOS, priority 2007, published 2010)

Assays:
[1] = tested on: neuropathies induced by paclitaxel; assay: Hypersensitivity to pain (mechanical allodynia 4 gVFH, mechanical hyperalgesia 15 gVFH) in rat model of neuropathies induced by paclitaxel; type: in vivo, rat (Sprague-Dawley); settings: for anti-allodynia (4 gVFH) / anti-hyperalgesia (15 gVFH): AUC D16-D40
Experimental: Adult male Sprague-Dawley rats were used.
Paclitaxel (6 mg/ml in a 50:50 mixture of Cremophor and ethanol) was diluted just before use with a […] sodium chloride solution at a concentration of 2 mg/ml and injected by intraperitoneal route in a volume of 1 ml/kg on days 0, 2, 4 and 6.
Fresh solutions of cholest-4-en-3 one oxime (Sigma) in corn oil were prepared each week at a concentration of 0.6 or 6.0 mg/ml. This solution was given to the animal by oral tube feeding in a volume of 5 ml/kg.
Three groups of 12 animals treated with paclitaxel were formed: • group 1: cholest-4-en-3-one oxime at 3 mg/kg per os, daily for 17 days (day(−1)-day(15), commencing on the day before the first injection of paclitaxel and continuing for 9 days after the last injection of paclitaxel). On the days when the cholest-4-en-3-one oxime and the paclitaxel had to be administered, the cholest-4-en-3-one oxime was given at 9:00 h, and the paclitaxel at 13:00 h; • group 2: as above except that the cholest-4-en-3-one oxime was given at 30 mg/kg; • group 3: as above except that the animals received an identical volume of excipient (corn oil);
The animals were habituated to the test environment for 3 separate days and then 3 sessions per day were organized in order to establish the normal response to a von Frey hairs (VFH) stimulation exerting pressure of 4 g or 15 g (4 gVFH or 15 gVFH). Normal rats rarely withdraw from a stimulation with 4 gVFH; thus, an increase in response post treatment with paclitaxel is a sign of mechanical allodynia. Normal rats withdraw from a stimulation with 15 gVFH 10-20% of the time; thus an increased frequency of response to this stimulus indicates mechanical hyperalgesia.
The animals were placed in cages containing a metal mesh floor giving access to the soles of the animals' paws. Each mechanical stimulus was applied to the middle of the heel of the left hind paw. The presence or absence of withdrawal of the paw was noted. This was repeated 5 times on each hind paw and the animals' responses were summarized as a percentage of responses (5 withdrawals of the paw in response to a stimulation of 15 gVFH corresponded to a score of 50%).
The rats were habituated to the test environment for 3 days. Tests relating to the reference level of sensitivity at 4 g and 15 gVFH were carried out for 3 consecutive days; the average of the last two corresponded to the level of sensitivity before treatment with paclitaxel. The behaviour tests for testing the effects of paclitaxel commenced on day 16 and were repeated on days 19, 22, 25, 28, 31, 35 and 40, by an investigator ignorant of the treatments applied to each of the animals.
The area-under-the-curve values were calculated for each group during the period from D16 to D40 (from the start of the appearance of the pain due to the paclitaxel to the end of the experiment). The AUC values were analyzed with an ANOVA test followed by comparison “in pairs” with the group having received the excipient by Dunnett's t-test.

[2] = tested on: tactile allodynia induced by vincristine sulphate; assay: Tactile allodynia induced by cumulative doses of vincristine sulphate in the rat (paw withdrawal threshold, Dynamic Plantar Aesthesiometer); type: in vivo, rat (WISTAR); settings: for anti-allodynic effect on first day of administration: day 10
Experimental: The effect of cholest-4-en-3-one oxime on tactile allodynia induced by cumulative doses of vincristine sulphate was evaluated in the rat. Adult male WISTAR rats weighing approximately 250 g were used. Vincristine sulphate was injected by intravenous route at 200 μg/kg on days 1, 4 and 6 (total cumulative dose of 600 μg/kg). The animal's paw withdrawal thresholds to harmless mechanical stimulation were measured in the rats on days 0, 3, 5, 7 and then every day from day 10 to day 14. The cholest-4-en-3-one oxime (10, 30 and 100 mg/kg once daily) was administered by oral route from day 10 to day 14 and the paw withdrawal thresholds were measured 4 hours after administration of the cholest-4-en-3-one oxime. 8 rats were used per tested dose. The mechanical stimulation thresholds at which the animals withdraw their hind paw in response to mechanical stimulations were measured using a Dynamic Plantar Aesthesiometer (Ugo Basile, Italy). Briefly, in a temperature-controlled room (approximately 22° C.) each animal was placed in a transparent cubic box made of Perspex (22×16.5×14 cm) containing a metal mesh floor giving access to the soles of its paws and left for 15 minutes before the test in order for it to acclimatize. A mechanical stimulus was applied to the left hind paw using a stainless filament (0.5 mm in diameter) exerting a force which increases linearly (2.5 g/sec). The force (g) at which the animal withdraws its paw was recorded automatically. Each paw withdrawal threshold was calculated as the average of three consecutive tests carried out at 5-minute intervals by an investigator ignorant of the treatments used on each of the animals. A 50 g limit was imposed in order to prevent tissue damage. A stock solution of cholest-4-en-3-one oxime in corn oil was prepared on the first day of the experiment and administered once daily by oral tube feeding (5 ml/kg). The cholest-4-en-3-one oxime was reduced to a fine powder and mixed with the necessary quantity of excipient in order to obtain concentrations of […], 6 and 20 mg/ml, the mixture is then homogenized by magnetic stirring for at least 10 minutes. Stock solutions were kept at 4° C. between administrations. A statistical analysis was carried out using a two-way ANOVA test followed by Tukey's test in order to compare the effect of the test compound with respect to the excipient.

[3] = tested on: cold allodynia induced by oxaliplatin; assay: Cold allodynia (acetone drop) induced by cumulative doses of oxaliplatin in the rat; type: in vivo, rat (Sprague-Dawley)
Experimental: The effect of the cholest-4-en-3-one oxime on cold allodynia induced by cumulative doses of oxaliplatin were evaluated in the rat. Adult male Sprague-Dawley rats weighing approximately 150 g were used. The oxaliplatin was injected by intra-peritoneal route at 3 mg/kg three times a week and for three weeks (total cumulative dose of 27 mg/kg). The paw withdrawal time as well as the amplitude of the animal's response to harmless thermal stimulations using a drop of acetone were measured in the rats before and after treatment by oxaliplatin on days 1 and 18 respectively, and then on each day of treatment with cholest-4-en-3-one oxime, from day 22 to day 25. The cholest-4-en-3-one oxime (1, 10 and 100 mg/kg once daily) was administered by oral route from day 22 to day 25 and the thresholds for withdrawal of the paw were measured 4 hours after administration of the cholest-4-en-3-one oxime. 7 to 9 rats were used per dose tested. For each animal, the reaction times at which the animals withdrew their hind paw following the deposition of the drop of acetone were calculated as the average of six consecutive tests carried out at 5-minute intervals by an investigator ignorant of the treatments applied to each of the animals. A limit of 20 seconds was imposed. The amplitude of the response to the drop of acetone was marked on a scale of 0 to 3: 0 (no response); 1 (rapid withdrawal of the paw); 2 (prolonged withdrawal of the paw); 3 (repeated withdrawal of the paw with licking and/or biting). The score of each of the six tests was totalled. A stock solution of cholest-4-en-3-one oxime in corn oil was prepared on the first day of the experimentation and administered once daily by oral tube feeding (5 ml/kg). The cholest-4-en-3-one oxime was reduced to a fine powder and mixed with the necessary quantity of vehicle in order to obtain concentrations of 0.2, 2 and 20 mg/ml, the mixture is then homogenized by magnetic stirring for at least 10 minutes. Stock solutions were kept at 4° C. between administrations. A statistical analysis was carried out using a two-way ANOVA test followed by Bonferroni's test in order to compare the effect of the test compound with respect to the vehicle.

[4] = 3 mg/kg per os daily for 17 days
[5] = 30 mg/kg per os daily for 17 days

CC(C)CCC[C@@H](C)[C@H]1CC[C@H]2[C@@H]3CCC4=CC(=NO)CC[C@]4(C)[C@H]3CC[C@]12C [cholest-4-en-3-one oxime]
development of mechanical allodynia and hyperalgesia ([1]; 3 mg/kg and 30 mg/kg per os daily day -1 to day 15, AUC D16 to D40, p<0.01): significantly inhibited
anti-allodynia (4 gVFH) [1, 4]: 59%
anti-hyperalgesia (15 gVFH) [1, 4]: 45%
anti-allodynia (4 gVFH) [1, 5]: 53%
anti-hyperalgesia (15 gVFH) [1, 5]: 40%
anti-allodynic effect on first day of administration ([2]; oral 10 mg/kg, p=0.086): no significant anti-allodynic effect
anti-allodynic effect on first day of administration ([2]; oral 30 mg/kg, P=0.232): no significant anti-allodynic effect
effect on allodynia induced by vincristine, daily treatment ([2]; oral 10, 30 and 100 mg/kg once daily, days 11 to 14, P<0.05 in all cases): significantly alleviates the allodynia
effect on allodynia induced by vincristine vs excipient ([2]; single oral dose 100 mg/kg, day 10, measured 4 hours after administration, P<0.001): significantly alleviates the allodynia
anti-allodynic effect on first day of administration ([3]; lower doses (1 and 10 mg/kg oral), day 22): no significant anti-allodynic effect
anti-allodynic effect after daily treatment ([3]; oral 100 mg/kg once daily, days 22 to 25): persisted
effect on cold allodynia induced by oxaliplatin from third day of administration ([3]; oral 1 and 10 mg/kg once daily, day 24, P<0.05): significantly reduced the cold allodynia
effect on allodynia induced by oxaliplatin vs excipient ([3]; single oral dose 100 mg/kg, day 22, P<0.05): significantly reduced the allodynia
